The results in this text go back to patent US9604979B2, “Pyrroloquinoline quinone alcohol adduct” (Mitsubishi Gas Chemical Company, Inc., priority 2011, dated 2017).

Data set [1] in a line: Mixing with coenzyme Q10, color of the mixture. The format is physicochemical. Conditions: weight ratio 1:1.
Another data set concerns Escherichia coli JM109. The data set can be described thus: Effect on bacterial growth (viable bacteria count). Type of data set: cell-based. Conditions: 8 mg sample + 100 μL E. coli JM109 solution (turbidity at 660 nm 0.57), 30 minutes room temperature, then 900 μL PBS, LB agar 30° C., colonies. The protocol:
Escherichia coli JM109 was cultivated overnight in an LB medium at 30° C. The cultivated Escherichia coli JM109 was diluted with a phosphate buffer (PBS) having pH of 7.4 manufactured by GIBCO to obtain a solution 1 having turbidity at 660 nm of 0.57. To 8 mg of each sample shown in Table 2, 100 μL of the solution 1 was added at room temperature, and after 30 minutes, 900 μL of PBS was further added to obtain a solution 2. The solution 2 was planted in a petri dish with an LB agar medium and cultivated at 30° C., and a viable bacteria count was determined from the number of colonies in the solution 2.

Data set [2] is described as follows: High-performance liquid chromatography analysis: return of PQQ alcohol adduct to PQQ. Type of data set: physicochemical. Conditions: 1 mg/ML adduct in phosphate buffer pH 7.4, left at room temperature for 2 hours, HPLC. The protocol:
The high-performance liquid chromatography analysis of the PQQ alcohol adduct or the like was performed as follows.
A column: YMC-Pack ODS-TMS (5 μm) 150×4.6 mm I.D. was arranged in a high-performance liquid chromatography LC-20A manufactured by Shimadzu Corporation, and detection was performed at 260 nm using an eluent of 100 mM CH3COOH/100 mM CH3COONH4 (30/70, pH 5.1) and an absorption detector.
The PQQ methanol adduct obtained in Example 1 was added to a phosphate buffer (manufactured by Invitrogen pH 7.4) to obtain 1 mg/ML of a PQQ methanol adduct solution. After the PQQ methanol adduct solution was left at room temperature for 2 hours, the high-performance liquid chromatography analysis was performed. […] That is, the PQQ methanol adduct obtained in Example 1 returned to the original PQQ free body by the addition of the phosphate buffer and being left at room temperature for 2 hours.

Data set [3] can be described thus: Stability test in polypropylene container in oven (change of color). The format is physicochemical. The protocol: It is to be noted that 100 μL of ODO, Nisshin Oillio was used as an edible fat and oil.

As for `O=C([O-])c1cc(C(=O)[O-])c2c(n1)C(=O)C(=O)c1cc(C(=O)O)[nH]c1-2.[Na+].[Na+]` [PQQ disodium], the “Color of mixture with coenzyme Q10” value in data set [1] is reported as “Brown”.

As to `O=C(O)c1cc(C(=O)O)c2c(n1)C(=O)C(=O)c1cc(C(=O)O)[nH]c1-2` [PQQ free body, Pyrroloquinoline quinone], the Viable bacteria count with Escherichia coli JM109 amounted to 80. Further, the “Color of mixture with coenzyme Q10” value in data set [1] was “Brown”.

As to `COC1(O)C(=O)c2cc(C(=O)O)[nH]c2-c2c(C(=O)O)cc(C(=O)O)nc21` (stereo not drawn) [PQQ methanol adduct], the “PQQ existing in the PQQ methanol adduct solution” value in data set [2] worked out at 0.92 mg/mL. Besides, the Viable bacteria count in the data set with Escherichia coli JM109 came to 0. In addition, the “Color of mixture with coenzyme Q10” value in data set [1] is given as “Yellow”. In addition, in data set [3] (30° C., container's cover opened, 5 mg), the “Observation result after 7 days” value was “Red powder”. In addition, in data set [3] (Table 5), the “Discoloration in the opened state (container's cover opened)” value is on record as “immediately discolored to red” and the “Stability in the sealed state of the container” value is “stable”.
